Ends that are not written are not given here.
How the values were obtained:
Type in all cases: in vivo, human
[1] = test system: patients with benign prostatic hyperplasia (BPH); assay: Double-blind BPH study, single intraprostatic injection followed by conventional oral BPH medications, IPSS (Example One); conditions: NTP peptide plus additional oral medication vs placebo plus additional oral medication
From the text: In a study of 97 patients who had or had not previously ever taken conventional approved oral medications for their benign prostatic hyperplasia (BPH), the patients received a double-blind single injection of a specific peptide described by the amino acid sequence Ile-Asp-Gln-Gln-Val-Leu-Ser-Arg-Ile-Lys-Leu-Glu-Ile-Lys-Arg-Cys-Leu (hereinafter “DRUG”) (n=61) or vehicle alone (placebo) (n=36) and were followed clinically for 2-5 years. Patients with BPH were given an intraprostatic injection of either a) DRUG in phosphate buffered saline pH 7.2 (“PBS”) or b) PBS alone, under double-blind conditions by a urologist in an office setting under ultrasound guidance. Patients were followed for 2 to 5 years with regular physical examinations, laboratory tests, and evaluations of symptoms. […]
Symptomatic evaluation was measured by the International Prostate Symptom Score (IPSS) which is a quantitative scale used to gauge prostatic symptomatic improvement or worsening. The IPSS quantifies the following: 1) incomplete bladder emptying after urination; 2) frequent urination; 3) stopping and starting during urination; 4) urgent need to urinate; 5) weakness of urinary stream; 6) need to push or strain during urination; 7) need to urinate after going to sleep at night (nocturia). […]

[2] = test system: patients with BPH not previously on conventional oral medications; assay: BPH study in patients never before on oral BPH medications, injection then oral medications, Symptom Score (Example Two)
Method: In a study of 30 patients who had not previously ever taken conventional approved oral medications for their BPH, the patients received a double-blind single injection of DRUG (n=21) or vehicle alone (placebo) (n=9) and were followed clinically for 2-5 years. Patients from both of the above drug and vehicle only placebo groups who had not previously received conventional oral medications and subsequently went on conventional oral medications were evaluated for their responses to the conventional oral BPH medications.

patients with BPH = assay: Cross-over study: BPH patients on PBS plus oral medication, then additional DRUG injection, IPSS (Example Three); conditions: same patients after cross-over to DRUG vs PBS + oral medication
Method: In another study, patients with BPH were given an intraprostatic injection of PBS pH 7.2 vehicle alone, under double-blind conditions by a urologist in an office setting under ultrasound guidance. Patients were followed for 1 to 3 years with regular physical examinations, laboratory tests, and evaluations of symptoms. Patients who received PBS vehicle alone injections and who subsequently received in addition conventional oral medications used to treat BPH such as alpha blockers were assessed before and after receiving an additional injection of DRUG in phosphate buffered saline pH 7.2 (“PBS”). Symptomatic evaluation was measured by the International Prostate Symptom Score (IPSS) which is a quantitative scale used to gauge prostatic symptomatic improvement or worsening. The difference from baseline IPSS was compared in patients who were given blinded PBS only plus conventional oral medications vs results in the same patients on oral medications after cross-over to DRUG.

[3] = test system: patients with BPH who subsequently underwent surgical treatment; assay: BPH study: single injection, subsequent surgical treatment, Symptom Score (Example Four)
From the text: 973 patients who had not previously ever undergone surgical procedures for their BPH (including all types of surgical procedures such as transurethral resection of the prostate, laser ablation, microwave, needle ablation, and other minimally invasive surgical treatments) received a double-blind single injection of DRUG or vehicle alone (placebo) and were followed clinically for 2-5 years. All (N=58) patients from the above drug and vehicle alone placebo groups who had not previously undergone surgical treatment for their BPH and who subsequently underwent surgical treatment for their BPH (N=58) were then evaluated for their responses to the surgical procedures.

IDQQVLSRIKLEIKRCL [DRUG]
Mean IPSS Improvement, when compared to the control [1]: about 40%
Mean IPSS Improvement, when compared to the control ([2]; naive patients, NTP peptide then oral medication vs placebo then oral medication): about 221%
mean improvement in Symptom Score ([2]; oral-medication-naive patients, single injection then conventional oral BPH medication, 2-5 years, n=21): 7.48 points
Mean IPSS Improvement, when compared to the control (patients with BPH): about 110%
Mean IPSS Improvement, when compared to the control ([3]; NTP peptide prior to surgical treatment vs placebo prior to surgery): about 142%
mean improvement in Symptom Score after surgery ([3]; single injection, subsequent surgical treatment for BPH, n=31): 15.3 points

— US20160361380A1, “COMBINATION COMPOSITIONS FOR TREATING DISORDERS REQUIRING REMOVAL OR DESTRUCTION OF UNWANTED CELLULAR PROLIFERATIONS” (Nymox Corporation, priority 2015, published 2016)
